Measured values reported in US20130261045A1, “GREEN TEA POLYPHENOL ALPHA SECRETASE ENHANCERS AND METHODS OF USE” (UNIVERSITY OF SOUTH FLORIDA, priority 2005, published 2013).

Experiments:
α-secretase = α-secretase cleavage activity kit, lysates of APP-transfected N2a cells; assay type: cell-based, murine; conditions: first 1 to 3 hours after EGCG
[1] = tested on: TNF-a converting enzyme (TACE); assay: Western blot of TACE in APP-transfected N2a cells; assay type: cell-based, murine; conditions: in 3 to 4 hours following EGCG treatment, then rapidly cleaved through 8 hours
Description: Cultured cells and mouse brain were lysed in ice-cold lysis buffer described above, and an aliquot corresponding to 50 μg of total protein was electrophoretically separated using 16.5% Tris-tricine gels. Electrophoresed proteins were then transferred to PVDF membranes (Bio-Rad), washed in dH2O, and blocked for 1 hour at ambient temperature in Tris-buffered saline (TBS; Bio-Rad) containing 5% (w/v) for non-fat dry milk. After blocking, membranes were hybridized for 1 hour at ambient temperature with various antibodies, including against the C- (369), N-terminus of APP (22C11), the N-terminus of Aβ (6E10), and ADAM10 and TACE (Calbiochem). […] Densitometric analysis was done using the Fluor-S Multimager™ with Quantity One™ software (Bio-Rad). […] Antibodies used for Western blot included antibody 369 (1:1,000), anti-C-terminal APP antibody (1:500; Chemicon, Temecula, Calif.), BAM-10 (1:1,000; Sigma), 6E10 (1:1,000; Signet) or anti-Actin antibody (1:1,500; as an internal reference control; Roche). α-, β- and γ-secretase activities were quantified in cell lysates and mouse brain homogenates using available kits based on secretase-specific peptides conjugated to fluorogenic receptor molecules (R&D Systems, Minneapolis, Minn.).

transgenic APPsw mice = assay: EGCG ICV injection of transgenic APPsw mice (cerebral Aβ, α-secretase activity); assay type: in vivo; conditions: ICV 10 μg/mouse once; 24 hours
Description: Cultured cells were lysed in ice-cold-lysis buffer (20 mM Tris, pH 7.5, 150 mM NaCl, 1 mM EDTA, 1 mM EGTA, 1% v/v Triton X-100, 2.5 mM sodium pyropgosphate, 1 mM β-glycerolphosphate, 1 mM Na3VO4, 1 μg/mL leupeptin, 1 mM PMSF) as previously described (Tan et al., 2002). Mouse brains were isolated under sterile conditions on ice and placed in ice-cold lysis buffer. Brains were then sonicated on ice for approximately 3 min, allowed to stand for 15 min at 4° C., and centrifuged at 15,000 rpm for 15 min. Total Aβ1-42 species were detected by acid extraction of brain homogenates in 5 M guanidine buffer (ret), followed by a 1:10 dilution in lysis buffer. Soluble Aβ1-42 was directly detected in cultured cell lysates or brain homogenates prepared with lysis buffer described above by a 1:4 or 1:10 dilution, respectively. Aβ1-42 was quantified in these samples using the Aβ1-42 ELISA kit (BioSource, Camarillo, Calif.) in accordance with the manufacturer's instructions, except that standards included a 0.5 M guanidine buffer.
Cultured cells and mouse brain were lysed in ice-cold lysis buffer described above, and an aliquot corresponding to 50 μg of total protein was electrophoretically separated using 16.5% Tris-tricine gels. Electrophoresed proteins were then transferred to PVDF membranes (Bio-Rad), washed in dH2O, and blocked for 1 hour at ambient temperature in Tris-buffered saline (TBS; Bio-Rad) containing 5% (w/v) for non-fat dry milk. […] Densitometric analysis was done using the Fluor-S Multimager™ with Quantity One™ software (Bio-Rad). […] Antibodies used for Western blot included antibody 369 (1:1,000), anti-C-terminal APP antibody (1:500; Chemicon, Temecula, Calif.), BAM-10 (1:1,000; Sigma), 6E10 (1:1,000; Signet) or anti-Actin antibody (1:1,500; as an internal reference control; Roche). α-, β- and γ-secretase activities were quantified in cell lysates and mouse brain homogenates using available kits based on secretase-specific peptides conjugated to fluorogenic receptor molecules (R&D Systems, Minneapolis, Minn.). […]

ADAM10 [2] = assay: Western blot of ADAM10 maturation in SweAPP N2a cells; assay type: cell-based, murine
Description: (§1) Cultured cells were lysed in ice-cold lysis buffer described above, and an aliquot corresponding to 50 μg of total protein was electrophoretically separated using 16.5% Tris-tricine gels. Electrophoresed proteins were then transferred to PVDF membranes (Bio-Rad, Richmond, Calif.), washed in ddH2O, and blocked for 1 h at ambient temperature in Tris-buffered saline (TBS; Bio-Rad) containing 5% (w/v) non-fat dry milk. After blocking, membranes were hybridized for 1 h at ambient temperature with various primary antibodies. Membranes were then washed 3 times for 5 min each in ddH2O and incubated for 1 h at ambient temperature with the appropriate HRP-conjugated secondary antibody (1:1,000, Pierce Biotechnology, Inc. Rockford, Ill.). All antibodies were diluted in TBS containing 5% (w/v) of non-fat dry milk. Blots were developed using the luminol reagent (Pierce Biotechnology). Densitometric analysis was done using the Fluor-S MultiImager™ with Quantity One™ software (Bio-Rad). For examining sAPP-α, conditioned medium was collected following treatment according to a modified protocol from Chen and Fernandez (Chen et al., 2004). sAPP-α was extracted using 3K Nanosep centrifugal filters (Pall Life Sciences, Ann Arbor, Mich.) and protein concentrate was prepared for the aforementioned electrophoresis. […]

ADAM17 = assay: Western blot of ADAM17 in SweAPP N2a cells; assay type: cell-based, murine; conditions: EGCG treatment; data not shown
Description: as §1

ADAM10 [3] = assay: Western blot of ADAM10 maturation in N9 microglial cells; assay type: cell-based; conditions: various doses, 8 h
Description: Cultured cells were lysed in ice-cold lysis buffer described above, and an aliquot corresponding to 50 μg of total protein was electrophoretically separated using 16.5% Tris-tricine gels. Electrophoresed proteins were then transferred to PVDF membranes (Bio-Rad, Richmond, Calif.), washed in ddH2O, and blocked for 1 h at ambient temperature in Tris-buffered saline (TBS; Bio-Rad) containing 5% (w/v) non-fat dry milk. After blocking, membranes were hybridized for 1 h at ambient temperature with various primary antibodies. Membranes were then washed 3 times for 5 min each in ddH2O and incubated for 1 h at ambient temperature with the appropriate HRP-conjugated secondary antibody (1:1,000, Pierce Biotechnology, Inc. Rockford, Ill.). All antibodies were diluted in TBS containing 5% (w/v) of non-fat dry milk. Blots were developed using the luminol reagent (Pierce Biotechnology). Densitometric analysis was done using the Fluor-S MultiImager™ with Quantity One™ software (Bio-Rad). […] Antibodies used for Western blot included: antibody 369 (which recognizes the carboxyl-terminus of APP; 1:1,500), clone 22C11 (against the amino-terminus of APP; 1:1,500), clone 6E10 (against amino acids 1-17 of Aβ; 1:1,500), anti-ADAM9 (1:500), and antibodies against ADAM10 (1:500), ADAM17 (1:500) or actin (1:1,500; as an internal reference control).

Aβ1-40 and Aβ1-42 = assay: Aβ1-40/Aβ1-42 ELISA, Tg2576 mouse-derived primary neuronal cells; assay type: cell-based; conditions: Tg2576 primary neurons; various doses, 8 h
TNF-α = TNF-α levels in cultured medium of microglial cells; assay type: cell-based; conditions: EGCG treatment, data not shown
Description: It has been shown that TACE is critically involved in TNF-α maturation associated with pro-inflammatory responses (Moro, M. A. et al., 2003).

ADAM9 = assay: Western blot of ADAM9 in SweAPP N2a cells; assay type: cell-based, murine; conditions: EGCG treatment; data not shown
Description: as §1

APP cleavage processing = assay: Western blot/immunoprecipitation of APP cleavage (CTFs, sAPP-α, holo APP) in APP-transfected N2a cells; assay type: cell-based, murine
Description: Cell cultured supernatants were collected and cell lysates were prepared from these cultured cells.
Cultured cells and mouse brain were lysed in ice-cold lysis buffer described above, and an aliquot corresponding to 50 μg of total protein was electrophoretically separated using 16.5% Tris-tricine gels. Electrophoresed proteins were then transferred to PVDF membranes (Bio-Rad), washed in dH2O, and blocked for 1 hour at ambient temperature in Tris-buffered saline (TBS; Bio-Rad) containing 5% (w/v) for non-fat dry milk. After blocking, membranes were hybridized for 1 hour at ambient temperature with various antibodies, including against the C- (369), N-terminus of APP (22C11), the N-terminus of Aβ (6E10), and ADAM10 and TACE (Calbiochem). Membranes were then washed 3× for 5 min each in dH2O and incubated for 1 hour at ambient temperature with the appropriate HRP-conjugated secondary antibody (1:1,000, Pierce Biotechnology, Inc. Rockford, Ill.). All antibodies were diluted in TBS containing 5% (w/v) of non-fat dry milk. Blots were developed using the luminal reagent (Pierce Biotechnology). Densitometric analysis was done using the Fluor-S Multimager™ with Quantity One™ software (Bio-Rad). Immunoprecipitation was performed for detection of sAPP-α, sAPP-β and Aβ by incubating 200 μg of total protein of each sample with 6E10 (1:100; Signet) or 22C11 (1:100; Roche, Basel, Switzerland) overnight with gentle rocking at 4° C., and 10 μL of 50% protein A-Sepharose beads were then added to the sample (1:10; Sigma) prior to gentle rocking for an additional 4 hours at 4° C. Following washes with 1× cell lysis buffer, samples were subjected to Western blot as described above. Antibodies used for Western blot included antibody 369 (1:1,000), anti-C-terminal APP antibody (1:500; Chemicon, Temecula, Calif.), BAM-10 (1:1,000; Sigma), 6E10 (1:1,000; Signet) or anti-Actin antibody (1:1,500; as an internal reference control; Roche). α-, β- and γ-secretase activities were quantified in cell lysates and mouse brain homogenates using available kits based on secretase-specific peptides conjugated to fluorogenic receptor molecules (R&D Systems, Minneapolis, Minn.).

O=C(O[C@@H]1Cc2c(O)cc(O)cc2O[C@@H]1c1cc(O)c(O)c(O)c1)c1cc(O)c(O)c(O)c1 [EGCG, (−)-epigallocatechin-3-gallate]
α-secretase cleavage activity in cell lysate (α-secretase): markedly elevated | TACE expression [1]: significantly increased | elevation of α-secretase cleavage activity in brain (transgenic APPsw mice): 32% | reduction of cerebral soluble Aβ levels (transgenic APPsw mice): 39% | α-secretase cleavage activity in brain (mean ± s.e.m.) (transgenic APPsw mice): 890.29±104.41 fluorescence units/mg of total protein | mature ADAM10, temporal analysis (ADAM10 [2]; 20 μM, as early as 30 min, continued to increase through 120 min): significant increases | mature ADAM10 (~60 kDa isoform) protein level (ADAM10 [2]; various doses of EGCG, 8 h): dose-dependently increased | ADAM17 expression (ADAM17): no significant effects | ADAM10 maturation (ADAM10 [3]): dose-dependently increased | Aβ1-40 levels (Aβ1-40 and Aβ1-42): dose-dependent reductions | Aβ1-42 levels (Aβ1-40 and Aβ1-42): dose-dependent reductions | TNF-α levels in cultured medium (TNF-α): no associated elevation | ADAM9 expression (ADAM9): no significant effects | secreted form of APP-α (sAPP-α) in cell cultured medium (APP cleavage processing; 20 μM for 18 hours): markedly increased | total APP and holo APP expression (APP cleavage processing; EGCG treated cells): not any changes | α-CTF generation, time course (APP cleavage processing; in 3 to 4 hours and then through to 8 hours after EGCG treatment): drastically increased
